Tests used:
[1] = test system: TNFα release by human PBMCs; experiment: Cytokine release by LPS-stimulated human PBMCs (TNFα ELISA); assay type: cell-based; conditions: PBMC, LPS 1 μg/mL, 24 hr
Description: Human peripheral blood mononuclear cells (PBMCs) are isolated from “buffy coats” prepared from the blood of healthy volunteers, isolated essentially according to method of Bøyum (1984). In brief, buffy coat is diluted 1:1 with 1×PBS (Gibco) and 30 mL is carefully put on top of 20 mL Lymphoprep™ (Lucron Bioproducts) in 50 mL Falcon tubes. After centrifugation (35 min, 400 g, 18° C.) the mononuclear cells are collected from the white interphase and washed 3 times with 1×PBS by resuspending and centrifugation (10 min, 200 g). Isolated PBMCs are finally resuspended in RPMI 1640 (Cat. No. 21875, Gibco) that is supplemented with 10% heat-inactivated FBS (Hyclone).
For the assay PBMCs are seeded at 2.5E6 cells/mL in 160 μL in 96-well plates (Nunc). Serial dilution of the test compounds are made first in DMSO (Sigma) and then diluted 50-fold in M199 medium (Gibco) containing 1% heat-inactivated FBS. Compounds are further 1/10 diluted in the assay plates to obtain final DMSO concentration of 0.2%. Cells are preincubated with the compounds for 1 hr at 37° C., 5% CO2. Then, cells are stimulated with LPS (Escherichia coli serotype 026:B6, Cat. No. L2654, Sigma) that is added in a volume of 20 μL to a final concentration of 1 μg/mL and cells are further cultured for 24 hr. The plates are centrifuged and the supernatant is collected and stored at −80° C. until analysis of appropriate dilutions in ELISAs.
The following 384-well chemiluminescent ELISA protocol was developed to measure TNFα levels in the supernatant: White Lumitrac 600 384-well plates (Greiner) are coated with (40 μL/well) anti-TNFα capture antibody (Cat. No. 551220, BD Pharmingen) that is diluted to 1 μg/mL in 1×PBS (Gibco). After overnight incubation at 4° C., plates are washed with 1×PBS (80 g NaCl, 2 g KCl (Sigma), 11.5 g Na2HPO4.7H2O and 2 g KH2PO4 in 10 L milliQ; pH 7.4) and blocked with 100 μL/well buffer B (1×PBS containing 1% BSA (Sigma), 5% sucrose (Sigma) and 0.05% NaN3 (Sigma)). After 4 hr incubation at RT, blocking buffer is removed and plates are washed once with PBST (1×PBS with 0.05% Tween-20 (Sigma)). Then, 40 μL of sample is transferred to the ELISA plates and plates are incubated at 4° C. Next day, plates are washed 3 times (twice with PBST and once with PBS) and 35 μL/well biotinylated anti-TNFα antibody (Cat. No. 554511, BD Pharmingen) diluted first to a concentration of 250 ng/ml in buffer D (1×PBS with 1% BSA) is added. After 2 h of incubation at RT, plates are washed as described above and 35 μL/well of a 1/2000 dilution of streptavidin-HRP conjugate (Cat. No. SNN2004, Biosource) in buffer D is added. After 45 min, plates are washed as described above and incubated for 5 min with 50 μL/well BM Chemiluminescence ELISA Substrate POD (Roche). Readout is performed on the Luminoscan Ascent Luminometer (Labsystems) with an integration time of 100 msec delivering raw data (RLU: relative luminescence units). The following controls are included in the experiments, a maximal signal control, in which the cells are activated by LPS but only the 0.2% DMSO vehicle (and thus no compound) is added. This control indicates the maximal level of TNFα that can be achieved in the test. A minimal signal control is also included in these experiments. Here, cells are not triggered. This control returns the basal TNFα levels produced by the PBMCs. The percent inhibition (PIN) of the TNFα release, achieved by the compounds is then calculated based on the RLU data returned by the ELISA with following formula: 100−[((TNFα level compound X at concentration Y−minimal TNFα levels)/(maximal TNFα levels−minimal TNFα levels))×100]. Where compounds are tested at 8 concentrations (1/3 serial dilution), EC50-values can be calculated by curve fitting of the means of the PIN data achieved for a compound at each test concentration. […]

MMP1 expression by SFs = experiment: 'MMP assay': MMP1 expression by 'complex trigger' activated synovial fibroblasts (MMP1 ELISA); assay type: cell-based, human; conditions: Homo sapiens, Fibroblast, RASFs, 48 hrs

| Structure (SMILES) | EC50 [1] [nM] | EC50 (MMP1 expression by SFs) [nM] |
| --- | --- | --- |
| c1cn2c(-c3cn[nH]c3)cnc(Nc3ccc(N4CCOCC4)cc3)c2n1 [Compound 1, (4-Morpholin-4-yl-phenyl)-[5-(1H-pyrazol-4-yl)-imidazo[1,2-a]pyrazin-8-yl]-amine] | > 1000 | > 1000 |
| NC(=O)c1ccc(-c2cnc(Nc3ccc(N4CCOCC4)cc3)c3nccn23)cc1 [Compound 13] | > 1000 | 501 to 1000 |
| O=c1cc(-c2cnc(Nc3ccc(N4CCOCC4)cc3)c3nccn23)cc[nH]1 [Compound 85, 4-[8-(4-Morpholin-4-yl-phenylamino)imidazo[1,2-a]pyrazin-5-yl]-1H-pyridin-2-one] | > 1000 | 501 to 1000 |
| CN1CCN(c2ccc(Nc3ncc(-c4cc[nH]c(=O)c4)n4ccnc34)cc2)CC1 [Compound 102, 4-{8-[4-(4-Methylpiperazin-1-yl)-phenylamino]imidazo[1,2-a]pyrazin-5-yl}-1H-pyridin-2-one] | > 1000 | > 1000 |
| NC(=O)c1ccc(-c2cnc(Nc3ccc(N4CCOCC4)cc3)c3nccn23)s1 [Compound 152] | 101 to 500 | 101 to 500 |
| NC(=O)c1cc(-c2cnc(Nc3ccc(N4CCOCC4)cc3)c3nccn23)cs1 [Compound 177, 4-[8-(4-Morpholin-4-yl-phenylamino)-imidazo[1,2-a]pyrazin-5-yl]-thiophene-2-carboxylic acid amide] | > 1000 | 101 to 500 |
| O=C1NCc2cc(-c3cnc(Nc4ccc(N5CCOCC5)cc4)c4nccn34)ccc21 [Compound 178, 5-[8-(4-Morpholin-4-yl-phenylamino)-imidazo[1,2-a]pyrazin-5-yl]-2,3-dihydro-isoindol-1-one] | 1 to 100 | 101 to 500 |
| NC(=O)c1coc(-c2cnc(Nc3ccc(N4CCOCC4)cc3)c3nccn23)c1 [Compound 179, 5-[8-(4-Morpholin-4-yl-phenylamino)-imidazo[1,2-a]pyrazin-5-yl]-furan-3-carboxylic acid amide] | > 1000 | 101 to 500 |
| NC(=O)c1cc(-c2cnc(Nc3ccc(N4CCOCC4)cc3)c3nccn23)co1 [Compound 203] | > 1000 | 501 to 1000 |
